One data set addresses T1, human PPARγ (Homo sapiens, UniProt P37231).
T1 construct: expressed in transfected cells; host or cells: HEK-293 (Human Embryonic Kidney) cells
T1 sequence (P37231 1-505): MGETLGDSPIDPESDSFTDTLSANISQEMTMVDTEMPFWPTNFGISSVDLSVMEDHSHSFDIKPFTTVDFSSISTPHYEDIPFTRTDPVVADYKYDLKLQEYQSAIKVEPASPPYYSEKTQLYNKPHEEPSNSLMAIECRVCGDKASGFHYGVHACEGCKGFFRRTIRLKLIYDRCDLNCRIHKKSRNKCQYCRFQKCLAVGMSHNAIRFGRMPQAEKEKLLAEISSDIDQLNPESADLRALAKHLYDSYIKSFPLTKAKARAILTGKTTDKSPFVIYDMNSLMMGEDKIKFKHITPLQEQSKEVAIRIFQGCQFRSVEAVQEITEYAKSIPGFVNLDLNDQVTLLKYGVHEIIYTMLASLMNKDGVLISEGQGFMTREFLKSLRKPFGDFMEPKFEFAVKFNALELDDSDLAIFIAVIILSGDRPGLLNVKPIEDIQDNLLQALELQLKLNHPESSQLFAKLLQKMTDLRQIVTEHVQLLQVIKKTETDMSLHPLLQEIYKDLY
The data set is described as follows: Human PPAR gamma agonist activity, GAL4-luciferase transactivation in transfected HEK-293 cells. The class given is cell-based. The conditions noted are these: fold increase in gene transactivation (luciferase), 18 hours incubation, classes at 10 μM or 1 μM. Here is the method:
HEK-293 (Human Embryonic Kidney) cells were seeded at a density of 2.8×10^5 cells/well in a 6 well plate in DMEM +10% delipidated FBS medium and incubated at 37° C., 5% CO2. At 70-80% confluency cells were transfected with human pCDNA3.1E˜PPARγ+pGL2˜GAL4x5˜Luc+pADV plasmids for 3 hours (ratio 2:0.25:1.25 μg/well). The transfection medium was then replaced with fresh medium and cells were incubated for 48 hours.
Varying final concentrations of compounds (vehicle=0.1% DMSO) of the invention were prepared in medium (50 μl/well) and added to the wells in a 96 well plate. Transfected cells were harvested and pelleted by centrifugation. The cell pellet was resuspended in medium and cells counted. 10,000 cells/well were added to the 96 well plate containing compounds of the invention and incubated for 18 hours. Luminescence produced following agonism of the PPAR gamma receptor was determined using Packard luciferase substrate reagent (100 μl/well). Light emission was quantified by counting SPC mode using a Top Count. Fold activation was calculated using the following formula: […]
All compounds show activity as PPAR gamma agonists at 30 μM. Key for relative activity: • *<8 fold increase in gene transactivation with 10 μM • **>8 fold increase in gene transactivation with 10 μM • ***>8 fold increase in gene transactivation with 1 μM.

Data set [1] relates to TS induced BAL neutrophil influx. The data set is described as follows: Pre-clinical mouse model of COPD inflammation (tobacco smoke induced pulmonary inflammation), BAL neutrophil counts. The class given is in vivo. The conditions noted are these: mice. The protocol: Protocols for the exposure of mice to TS, obtaining bronchoalveolar lavage (BAL), preparation of cytospin slides for differential cell counts are as outlined below.
In this exposure protocol, mice were exposed in groups of 5 in individual clear polycarbonate chambers (27 cm×16 cm×12 cm). The TS from the cigarettes was allowed to enter the exposure chambers at a flow rate of 100 mL/min. In order to minimize any potential problems caused by repeated exposure to a high level of TS (6 cigarettes), the exposure of the mice to TS was increased gradually over the exposure period to a maximum of 6 cigarettes. The exposure schedule used for 4 days was as follows:
A further group of mice was exposed to air on a daily basis for an equivalent length of time as controls (no TS exposure).
Bronchoalveolar lavage was performed as follows: the trachea was cannulated using a Portex nylon intravenous cannula (pink luer fitting) shortened to approximately 8 mm. Phosphate buffered saline (PBS) was used as the lavage fluid. A volume of 0.4 mL was gently instilled and withdrawn 3 times using a 1 mL syringe and then placed in an Eppendorf tube and kept on ice prior to subsequent determinations.
Lavage fluid was separated from cells by centrifugation and the supernatant decanted and frozen for subsequent analysis. The cell pellet was re-suspended in a known volume of PBS and total cell numbers calculated by counting a stained (Turks stain) aliquot under a microscope using a haemocytometer.
The residual cell pellet was diluted to approximately 10^5 cells per mL. A volume of 500 μL was placed in the funnel of a cytospin slide and centrifuged for 8 min at 800 rpm. The slide was air dried and stained using ‘Kwik-Diff’ solutions (Shandon) as per the proprietary instructions. When dried and cover-slipped, differential cells were counted using light microscopy. Up to 400 cells were counted by unbiased operator using light microscopy. Cells were differentiated using standard morphometric techniques.
Mice were dosed intra-nasally (surrogate for oral inhalation) with vehicle (0.2% tween 80 in saline), Example 1 (0.1 mg/kg), Example 10 (0.1 mg/kg), Example 10 (0.03 mg/kg), or Example 10 (0.01 mg/kg), at 3 hours prior to tobacco smoke exposure each day. The control group of mice received vehicle 3 hrs prior to being exposed to air daily for a maximum of 50 minutes per day. BAL was performed 24 h following the final TS exposure.
In a separate experiment, mice were dosed intra-nasally (surrogate for oral inhalation) with either vehicle (0.2% tween 80 in saline), Example 7 (0.1 mg/kg), Compound 7 (0.03 mg/kg), Example 15 (0.1 mg/kg), or Example 15 (0.03 mg/kg), 1 hour prior to tobacco smoke exposure each day. The control group of mice received vehicle 1 hr prior to being exposed to air daily for a maximum of 50 minutes per day. BAL was performed 24 h following the final TS exposure.
All results are presented as individual data points for each animal and the mean value was calculated for each group. Since tests for normality were positive the data was subjected to a one way analysis of variance test (ANOVA), followed by a Bonferroni correction for multiple comparisons in order to test for significance between treatment groups. A “p” value of <0.05 was considered to be statistically significant. Percentage inhibitions were automatically calculated within the Excel spreadsheets for the cell data using the formula below:
[formula] Inhibition data for other parameters were calculated manually using the above formula.

This is an account of results in patent publication US8362064B2, “Sulfonamide compounds for the treatment of respiratory disorders” (Pulmagen Theraputics (Inflammation) Limited, priority 2008, dated 2013).

By melting point is commonly meant the temperature of the solid-liquid transition.

Compound `Cc1ccc(-n2cc(Oc3ccc(NS(=O)(=O)c4ccc(Cl)cc4Cl)cc3)cn2)cc1` [Example 1, 2,4-dichloro-N-[4-(1-p-tolyl-1H-pyrazol-4-yloxy)-phenyl]benzene sulfonamide] had a melting point of 152 to 153 °C. Moreover, the PPARγ agonist activity result on human PPARγ is recorded as “*** (>8 fold increase in gene transactivation with 1 μM)”. For the same compound, the “Inhibition of TS induced BAL neutrophil influx” value in data set [1] (0.1 mg/kg intra-nasally 3 hours prior to TS exposure each day for 4 days, BAL 24 h after final TS) is 72%. In data set [1] (administered by a surrogate route for inhalation (intra-nasal)), the “TS induced influx of neutrophils in the BAL (in words)” value is listed as “significantly inhibit”.
